Laboratory results reported in patent US12059498B2, “Preparation and storage of liposomal RNA formulations suitable for therapy” (BioNTech SE, priority 2017, dated 2024).
“Also recorded” adds a separate entry of the source.

Assay: Freezing of RNA lipoplexes with cryoprotectants, particle size
Conditions: RNA lipoplexes frozen with increasing concentration of the compound
Excerpt: Methods: Different compounds representative for monosaccharides (glucose and sorbitol), disaccharides (sucrose and trehalose), amino acids (arginine, prolin), triols (glycerin) as well as cryoprotectant systems containing mixtures of different sugars (mannitol and sucrose) were investigated in order to identify suited cryoprotectants (FIGS. 25 and 26). Therefore RNA lipoplexes were frozen in the presence of increasing concentration of these compounds. In order to identify minimum content of cryoprotectant at a certain concentration of NaCl, RNA lipoplexes were frozen in the presence of increasing amounts of sucrose or trehalose as representative cryoprotectants (Table 7). The samples were initially frozen a single time in order to determine the concentration range of cryoprotectant to be investigated in detail. In a third experiment, the efficacy of stabilization of the particle size was challenged by freezing of the RNA lipoplexes up to 10 times in the presence of the cryoprotectant trehalose (Table 8).

stabilization of RNA lipoplexes during freezing (as cryoprotectant)	Structure (SMILES)
can be used as cryoprotectants	OCC(O)CO [Glycerin]
clearly destabilizes the RNA lipoplexes	N=C(N)NCCC[C@H](N)C(=O)O [arginine]

Structure (SMILES)	stabilization of RNA lipoplexes during freezing (as cryoprotectant)
OC[C@@H](O)[C@@H](O)[C@H](O)[C@@H](O)CO [sorbitol]	can be used as cryoprotectants; also recorded: lower
